Measurements as given in patent US12410160B2 (Gilead Sciences, Inc., priority 2021, dated 2025).

Columns and labels:
[1] = target: KHK-C expressed in NRK-52E cells (Homo sapiens (Human), UniProt P50053); experiment: KHK-C Cell-based Assay (EC50), NRK CTG, fructose-mediated ATP-depletion
[2] = target: human KHK-C (Homo sapiens (Human), UniProt P50053); experiment: KHK Biochemical Assay (IC50), ADP-Glo, KHK-C; settings: average of at least two separate assays
Method in brief: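 ADP-Glo luminescence measured ADP made over a 4 h room-temperature reaction of ATP plus fructose, started after 30 min compound–enzyme pre-incubation. Buffer: 50 mM Hepes pH 7.4, 140 mM KCl, 5 mM MgCl2, 0.01% Triton-X. Enzyme was His-tagged, BL21 (DE3)-expressed, Ni-NTA-purified; compounds in 1:3 DMSO dilution series.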

Chain of human KHK-C (P50053 whole entry): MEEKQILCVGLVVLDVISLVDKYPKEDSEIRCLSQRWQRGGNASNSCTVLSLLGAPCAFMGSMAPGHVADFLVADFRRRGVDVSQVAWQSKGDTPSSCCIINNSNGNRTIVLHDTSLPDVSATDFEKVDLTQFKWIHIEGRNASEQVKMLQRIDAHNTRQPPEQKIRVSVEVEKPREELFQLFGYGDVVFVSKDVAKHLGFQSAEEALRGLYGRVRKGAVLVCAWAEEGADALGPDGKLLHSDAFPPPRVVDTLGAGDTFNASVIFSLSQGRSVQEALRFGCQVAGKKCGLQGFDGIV
Chain of KHK-C expressed in NRK-52E cells (P50053 whole entry): as above

Row | SMILES | EC50 [1] | IC50 ([2]; ADP-Glo) | IC50 [2]
1 | C[C@H]1[C@H](O)CN1c1nc(-c2ccc(C(N)=O)cc2)c2c(n1)C1CC2C1 [Example 176] | 2.81 µM | 0.899 µM | –
2 | C[C@H]1COc2cc(-c3nc(N4C[C@@H](O)[C@@H]4C)nc4c3CCC4(F)F)ccc2C(=O)N1 [Example 179, (S)-8-(7,7-difluoro-2-((2S,3R)-3-hydroxy-2-methylazetidin-1-yl)-6,7-dihydro-5H-cyclopenta[d]pyrimidin-4-yl)-3-methyl-3,4-dihydrobenzo[f][1,4]oxazepin-5(2H)-one] | 0.386 µM | 0.0348 µM | –
3 | C[C@@H]1COc2cc(-c3nc(N4C[C@@H](O)[C@@H]4C)nc4c3CCC4(F)F)ccc2C(=O)N1 [Example 180, (R)-8-(7,7-difluoro-2-((2S,3R)-3-hydroxy-2-methylazetidin-1-yl)-6,7-dihydro-5H-cyclopenta[d]pyrimidin-4-yl)-3-methyl-3,4-dihydrobenzo[f][1,4]oxazepin-5(2H)-one] | 0.177 µM | 0.0274 µM | –
4 | CC(=O)Nc1cc(-c2nc(N3C[C@@H](O)[C@@H]3C)nc3c2CCC3(F)F)ccc1C(N)=O [Example 181, 2-acetamido-4-(7,7-difluoro-2-((2S,3R)-3-hydroxy-2-methylazetidin-1-yl)-6,7-dihydro-5H-cyclopenta[d]pyrimidin-4-yl)benzamide] | 0.579 µM | 0.011 µM | –
5 | C[C@H]1[C@H](O)CN1c1nc(-c2ccc(C(N)=O)c(OC(F)(F)F)c2)c2c(n1)C(F)(F)CC2 [Example 183, 4-(7,7-difluoro-2-((2S,3R)-3-hydroxy-2-methylazetidin-1-yl)-6,7-dihydro-5H-cyclopenta[d]pyrimidin-4-yl)-2-(trifluoromethoxy)benzamide] | 0.0891 µM | 0.0213 µM | –
6 | C[C@H]1[C@H](O)CN1c1nc2c(c(-c3ccc(CNS(C)(=O)=O)cc3)n1)CCC2 [Example 195, N-[[4-[2-[(2S,3R)-3-hydroxy-2-methyl-azetidin-1-yl]-6,7-dihydro-5H-cyclopenta[d]pyrimidin-4-yl]phenyl]methyl]methanesulfonamide] | 0.431 µM | 0.0586 µM | –
7 | C[C@H]1CCN1c1nc2c(c(-c3ccncn3)n1)CCC2 [Example 393, 2-[(2S)-2-methylazetidin-1-yl]-4-pyrimidin-4-yl-6,7-dihydro-5H-cyclopenta[d]pyrimidine] | 0.403 µM | – | 0.219 µM
8 | C[C@H]1CCN1c1nc2c(c(-c3nccn3C)n1)CCC2 [Example 394, 2-[(2S)-2-methylazetidin-1-yl]-4-(1-methylimidazol-2-yl)-6,7-dihydro-5H-cyclopenta[d]pyrimidine] | 0.785 µM | – | 0.172 µM
9 | C[C@H]1CCN1c1nc2c(c(-c3nc4ccc(C(=O)O)cc4n3C)n1)CCC2 [Example 395, 3-methyl-2-[2-[(2S)-2-methylazetidin-1-yl]-6,7-dihydro-5H-cyclopenta[d]pyrimidin-4-yl]benzimidazole-5-carboxylic acid] | > 5 µM | – | 0.329 µM
10 | C[C@H]1CCN1c1nc2c(c(-c3cccc(C4(O)CS(=O)(=O)C4)c3)n1)CCC2 [Example 397, (S)-3-hydroxy-3-(3-(2-(2-methylazetidin-1-yl)-6,7-dihydro-5H-cyclopenta[d]pyrimidin-4-yl)phenyl)thietane 1,1-dioxide] | 0.166 µM | – | 0.0328 µM
11 | CC12CCC(CC1)N2c1nc2c(c(-c3ccc(C(N)=O)cc3)n1)CCC2 [Example 398, 4-(2-(-1-methyl-7-azabicyclo[2.2.1]heptan-7-yl)-6,7-dihydro-5H-cyclopenta[d]pyrimidin-4-yl)benzamide] | > 5 µM | – | > 5 µM
12 | C[C@H]1CCN1c1nc2c(c(-c3cccc(S(C)(=O)=O)c3)n1)CCC2 [Example 399, (S)-2-(2-methylazetidin-1-yl)-4-(3-(methylsulfonyl)phenyl)-6,7-dihydro-5H-cyclopenta[d]pyrimidine] | 0.139 µM | – | 0.0743 µM
13 | NC(=O)c1ccc(-c2nc(N3CCCC34CC4)nc3c2CCC3)cc1 [Example 402, 4-(2-(4-azaspiro[2.4]heptan-4-yl)-6,7-dihydro-5H-cyclopenta[d]pyrimidin-4-yl)benzamide] | 1.59 µM | – | 3.76 µM
14 | C[C@H]1CCN1c1nc2c(c(-c3cccc(C4=CS(=O)(=O)C4)c3)n1)CCC2 [Example 420, (S)-3-(3-(2-(2-methylazetidin-1-yl)-6,7-dihydro-5H-cyclopenta[d]pyrimidin-4-yl)phenyl)-2H-thiete 1,1-dioxide] | 0.382 µM | – | 0.0618 µM
15 | C[C@H]1CCN1c1nc2c(c(-c3cccc(C4CS(=O)(=O)C4)c3)n1)CCC2 [Example 421, (S)-3-(3-(2-(2-methylazetidin-1-yl)-6,7-dihydro-5H-cyclopenta[d]pyrimidin-4-yl)phenyl)thietane 1,1-dioxide] | 0.297 µM | – | 0.067 µM
16 | C[C@H]1CCN1c1nc2c(c(-c3ccc4c(c3)CS(=O)(=O)C4)n1)CCC2 [Example 422, (S)-5-(2-(2-methylazetidin-1-yl)-6,7-dihydro-5H-cyclopenta[d]pyrimidin-4-yl)-1,3-dihydrobenzo[c]thiophene 2,2-dioxide] | 0.24 µM | – | 0.095 µM
17 | C[C@H]1CCN1c1nc2c(c(-c3cccc([C@@H]4[C@@H](C(=O)O)C4(C)C)c3)n1)CCC2 [Example 435, (1R,3R)-2,2-dimethyl-3-(3-(2-((S)-2-methylazetidin-1-yl)-6,7-dihydro-5H-cyclopenta[d]pyrimidin-4-yl)phenyl)cyclopropane-1-carboxylic acid] | 0.0784 µM | – | 0.0054 µM
18 | C[C@@H](OCc1ccccc1)[C@H]1C(O)CN1c1nc2c(c(-c3ccc(C(N)=O)cc3)n1)CCC2 (stereo partly drawn) [Example 438, 4-[2-[(2R)-2-[(1R)-1-benzyloxyethyl]-3-hydroxy-azetidin-1-yl]-6,7-dihydro-5H-cyclopenta[d]pyrimidin-4-yl]benzamide] | > 5 µM | – | > 5 µM
19 | C[C@H]1CCN1c1nc2c(c(-c3cc(Cl)cc([C@H]4C[C@@H]4C(=O)O)c3)n1)CCC2 [Example 443, (1S,2S)-2-[3-chloro-5-[2-[(2S)-2-methylazetidin-1-yl]-6,7-dihydro-5H-cyclopenta[d]pyrimidin-4-yl]phenyl]cyclopropanecarboxylic acid] | 0.0538 µM | – | 0.0042 µM
20 | C[C@H]1[C@H](O)CN1c1nc2c(c(-c3ccc(C(N)=O)cc3)n1)CC(F)(F)CC2 [Example 444, 4-(6,6-difluoro-2-((2S,3R)-3-hydroxy-2-methylazetidin-1-yl)-5,6,7,8-tetrahydroquinazolin-4-yl)benzamide] | > 5 µM | – | > 5 µM
21 | C[C@H]1[C@H](O)CN1c1nc(-c2ccc3c(c2)OCCNS3(=O)=O)c2c(n1)C(F)(F)CC2 [Example 500] | 0.238 µM | – | 0.0486 µM
22 | CC1(c2nc3c(c(-c4ccc(C(N)=O)cc4)n2)CCC3)CCC1 [Example 502, 4-(2-(1-methylcyclobutyl)-6,7-dihydro-5H-cyclopenta[d]pyrimidin-4-yl)benzamide] | 2 µM | – | 0.768 µM

Next, values leading:

Row | EC50 [1] | IC50 ([2]; ADP-Glo) | IC50 [2] | SMILES
23 | 0.242 µM | – | 0.217 µM | C[C@H]1CCCN1c1nc2c(c(-c3ccc(C(N)=O)cc3)n1)CCC2 [Example 403, (S)-4-(2-(2-methylpyrrolidin-1-yl)-6,7-dihydro-5H-cyclopenta[d]pyrimidin-4-yl)benzamide]
24 | > 5 µM | – | > 5 µM | C[C@@H]1CCCN1c1nc2c(c(-c3ccc(C(N)=O)cc3)n1)CCC2 [Example 404, (R)-4-(2-(2-methylpyrrolidin-1-yl)-6,7-dihydro-5H-cyclopenta[d]pyrimidin-4-yl)benzamide]
25 | 4.77 µM | – | 2.47 µM | NC(=O)c1ccc(-c2nc(N3CCC3)nc3c2CCC3)cc1 [Example 405, 4-(2-(azetidin-1-yl)-6,7-dihydro-5H-cyclopenta[d]pyrimidin-4-yl)benzamide]
26 | > 5 µM | – | > 5 µM | CSCC1CCN1c1nc2c(c(-c3ccc(C(N)=O)cc3)n1)CCC2 (stereo not shown) [Example 415, 4-(2-(2-((methylthio)methyl)azetidin-1-yl)-6,7-dihydro-5H-cyclopenta[d]pyrimidin-4-yl)benzamide]
27 | > 5 µM | – | > 5 µM | NC(=O)c1ccc(-c2nc(N3CCCC3=O)nc3c2CCC3)cc1 [Example 418, 4-(2-(2-oxopyrrolidin-1-yl)-6,7-dihydro-5H-cyclopenta[d]pyrimidin-4-yl)benzamide]
28 | 2.94 µM | – | 2.73 µM | CC(C)(O)[C@H]1CCN1c1nc2c(c(-c3ccc(C(N)=O)cc3)n1)CCC2 [Example 436, 4-[2-[(2R)-2-(1-hydroxy-1-methyl-ethyl)azetidin-1-yl]-6,7-dihydro-5H-cyclopenta[d]pyrimidin-4-yl]benzamide]
29 | > 5 µM | – | > 5 µM | CC(C)C[C@H]1C(F)CN1c1nc2c(c(-c3ccc(C(N)=O)cc3)n1)CCC2 (stereo partly drawn) [Example 437, 4-[2-[(2S)-3-fluoro-2-isobutyl-azetidin-1-yl]-6,7-dihydro-5H-cyclopenta[d]pyrimidin-4-yl]benzamide]
30 | 2.73 µM | – | 1.58 µM | NC(=O)c1ccc(-c2nc(N3CC[C@@H]3C(=O)O)nc3c2CCC3)cc1 [Example 442, (2R)-1-[4-(4-carbamoylphenyl)-6,7-dihydro-5H-cyclopenta[d]pyrimidin-2-yl]azetidine-2-carboxylic acid]
31 | > 5 µM | – | 0.954 µM | CS(=O)(=O)NC[C@H]1CCN1c1nc2c(c(-c3ccc(C(N)=O)cc3)n1)CCC2 [Example 457, 4-[2-[(2R)-2-(methanesulfonamidomethyl)azetidin-1-yl]-6,7-dihydro-5H-cyclopenta[d]pyrimidin-4-yl]benzamide]
32 | 0.597 µM | – | 0.212 µM | CC1CCC1c1nc2c(c(-c3ccc(C(N)=O)cc3)n1)CCC2 (stereo not shown) [Example 501, 4-(2-(2-methylcyclobutyl)-6,7-dihydro-5H-cyclopenta[d]pyrimidin-4-yl)benzamide]
